Experimental data reported in US7910111B2, “Inhibitors of N-ethylmaleimide sensitive factor” (The Johns Hopkins University, priority 2003, dated 2011).
No end group written: not given here.

What was measured:
[1] = tested on: human aortic endothelial cells (HAEC); conditions: for effect of peptide on thrombin induced vWF release: HAEC incubated 20 min with peptide; for effect on thrombin induced vWF release, dose response: HAEC pre-treated with increasing amounts, DEA-NONOate 10 min, DETA-NONOate 16 h, SNAP 6 h, NEM 1 h, L-NAME 16 h; for effect on thrombin stimulated vWF release: HAEC pre-treated with reagent, thrombin 1 U/ml 1 h
Procedure: To explore the effect of NO upon granule exocytosis, thrombin induced exocytosis of Weibel-Palade bodies from human aortic endothelial cells (HAEC) which release von Willebrand's Factor (vWF) was studied. HAEC was pre-treated with an NO donor 2-(N,N-diethylamino)-diazenolate-2-oxide (DEA-NONOate) 10 mM or with DEA as a control, stimulated the cells with thrombin 1 U/ml for 1 h, and the amount of vWF released into the media was then measured. […] HAEC was then pre-treated with increasing amounts of various NO donors, including a rapidly releasing NO donor DEA-NONOate for 10 min, a slowly releasing NO donor DETA-NONOate for 16 h, or a nitrosothiol S-nitroso-penicillamine (SNAP) for 6 h; alternatively, cells were treated with NEM for 1 h.
The role of endogenous NO in the regulation of Weibel-Palade body exocytosis was then explored. HAEC was pre-treated with L-NAME for 16 h in order to inhibit endogenous NOS, and then the cells were stimulated with 1 U/ml thrombin for 1 h and vWF release was measured. […] HAEC was next pre-treated with vascular endothelial growth factor (VEGF) in order to activate endogenous NOS3. Cells were incubated with 50 ng/ml VEGF or control for 2 h, and then stimulated with thrombin.
A peptide inhibitor of NSF that crosses cell membranes was designed. This peptide, designated TAT-NSF222, includes the protein transduction domain of HIV TAT (residues 47-57) previously shown to transduce polypeptides into cells (Becker-Hapak et al., 2001), fused to a fragment of NSF (residues 222-243) previously shown to inhibit NSF (Schweizer et al., 1998). […] HAEC were then incubated for 20 min with TAT-NSF222, or with a control peptide TAT-NSF222scr that consisted of the intact TAT domain followed by the amino acid residues of NSF 222-243 in a scrambled order. HAEC were transduced with TAT-NSF peptides, treated with media or thrombin, and the amount of vWF released into the media was measured by ELISA.
Since NSF plays a general role in vesicle trafficking, permanent inactivation of NSF would slow vesicular trafficking in general. However, local production of NO at the plasma membrane and reversible nitrosylation of NSF could provide spatial regulation of NSF.
Human aortic endothelial cells (HAEC) and EGM-2 media were obtained from Clonetics (Walkersville, Md.). HAEC were pre-treated with NO donors, washed, stimulated with 1 U/mil of thrombin, and the amount of vWF released into the media was measured by an ELISA (American Diagnostica, Greenwich, Conn.). HAEC were permeabilized by incubation with 10 U/well of SLO (Sigma) in PBS pH 7.4 for 15 min at 37° C. (Walev et al., 2001). Some cells were incubated with 20-200 μg/ml of antibodies or with 100 μg/ml of recombinant NSF. Cells were then resealed by incubation with EGM-2 media for 4 h at 37° C., washed with EGM-2 media, and stimulated with thrombin as above.
The ability of TAT-NSF to affect exocytosis from cells was investigated. Endothelial cells release vWF by exocytosis when stimulated by thrombin. Accordingly, endothelial cells were incubated with increasing amounts of TAT-NSF peptides for 20 min, then treated with 1 U/ml thrombin, and the amount of vWF released into the media was measured by ELISA.
Human aortic endothelial cells (HAEC) and EGM-2 media were obtained from Clonetics (Walkersville, Md.). HAEC were pre-treated with TAT-NSF peptides for 20 min, washed, stimulated with 1 U/ml of thrombin, and the amount of vWF released into the media was measured by an ELISA (American Diagnostica, Greenwich, Conn.).

[2] = target: T1, recombinant NSF (Cricetulus griseus, UniProt P18708); assay: NSF ATPase assay (coupled colorimetric assay); format: biochemical
T1 construct: RGS-(His)6 (N); made in house; host or cells: bacteria
Procedure: The effect of NO upon NSF activity was next explored, since NO inhibits Weibel-Palade body exocytosis, and since NSF regulates Weibel-Palade body exocytosis. The effect of NO upon the ATPase activity of NSF was first examined. DEA-NONOate was added to recombinant NSF, and the ATPase activity of NSF was measured.
(§1) The ATPase activity of NSF was measured by a coupled assay, in which ATP utilization is linked to the pyruvate kinase reaction, which generates pyruvate, which in turn is measured continuously with lactate dehydrogenase (Huang and Hackney, 1994). Recombinant NSF (0.2 μg/μl) was pre-treated with buffer or DEA or DEA-NONOate or NEM for 10 min at 22° C. ATPase reaction buffer (100 mM HEPES buffer, pH 7.0, 100 mM KCl, 10 mM MgCl2, 5 mM CaCl2, 10 mM ATP, 5 mM phosphoenol pyruvate, 50 U lactate dehydrogenase, and 50 U pyruvate kinase) was added to the mixture, followed by 10 μl of NADH (2 mg/ml in 1% sodium bicarbonate). The mixture was incubated for 10 min at 22° C., and the absorbance was measured at 340 nm.
The effect of the TAT-NSF peptide inhibitors upon the ability of NSF to hydrolyze ATP was measured. 10 μM TAT-NSF peptides was added to recombinant NSF, and the hydrolysis of ATP was measured. All 5 TAT-NSF peptides inhibited NSF ATPase activity (FIG. 8A). […] The effects of TAT-NSF81 (SEQ ID NO: 6) upon NSF were further defined. TAT-NSF81 (SEQ ID NO: 6) inhibits NSF ATPase activity in a dose-dependent manner with an IC50% between 1-10 μM (FIG. 8B).
as §1, with “TAT-NSF peptides” for “DEA or DEA-NONOate or NEM”

[3] = tested on: mice; assay: myocardial infarction (coronary ligation/reperfusion) in mice; format: in vivo
Procedure: The ability of the fusion peptides of the present invention to impact cardiac infraction was investigated. Mice were pre-treated intravenously with vehicle or 5 ug/mouse TAT-NSF700 (SEQ ID NO: 8) peptide 15 min prior to infarction. Myocardial infarctions were created in mice by ligation of the left anterior descending coronary artery. Myocardial ischemia was maintained for 35 minutes, and then the ligation of the coronary artery was released, and reperfusion continued for 24 h.
The mice were then sacrificed and the size of the myocardial infarction was quantitated as previously done (Jones S P, Greer J J, Kakkar A K, Ware P D, Turnage R H, Hicks M, van Haperen R, de Crom R, Kawashima S, Yokoyama M, Lefer D J. Am J Physiol Heart Circ Physiol. 2004 January; 286(1):H276-82. Epub 2003 Sep. 11.). The area at risk (AAR) was measured with Evans blue dye, the left ventricle (LV) area was measured by planimetery, and the infarct area (INF) was measured with TTC staining. There were 7 mice per group.

[4] = tested on: mice; assay: platelet adherence to mesenteric venules in mice (intravital microscopy); format: in vivo
Procedure: To further examine the physiological relevance of NO regulation of Weibel-Palade body exocytosis, the effect of endogenous NO upon platelet interactions with endothelial cells in vivo was measured. Platelet rolling, or transient adherence of platelets to the walls of blood vessels, is mediated by vWF released by exocytosis (Andre et al., 2000). Inhibition of endogenous NO synthesis might permit an increase in Weibel-Palade body exocytosis, an increase in released vWF, and an increase in platelet adherence to venule walls. […] Intravital microscopy was next employed to explore the effects of endogenous NO upon platelet rolling in vivo. Anesthetized mice were pre-treated or not with L-NAME, and then transfused with calcein-AM labeled platelets. The mesentery was externalized, superfused with histamine, and intravital microscopy was used to record interactions of fluorescently labeled platelets with mesenteric venules. Platelets were classified as adherent if they were transiently captured by the endothelium and then translocated in a stop-and-go fashion for a minimum of 2 seconds. […]
Measurements of platelet adherence in mice was adapted from Andre et al. (Andre et al., 2000). […] Platelet adherence was expressed as the number of adhering fluorescent cells per square millimeter of venular surface, calculated from the diameter and length of segment viewed.

[5] = tested on: mice; assay: bleeding time in mice after tail amputation (Example 1); format: in vivo; conditions: intravenous; for effect on bleeding time: tail amputated after 45 min
Procedure: To explore the physiological relevance of NSF regulation of Weibel-Palade body exocytosis, the effect of the NSF inhibitory peptide upon the bleeding time in mice was measured. Anesthetized mice were injected intravenously with saline, TAT-NSF222, or the control peptide TAT-NSF222scr; and after 45 min the distal 5 mm of tail was amputated and the bleeding time measured. […] In fact, 3 of the 6 mice treated with the TAT-NSF222 peptide had bleeding times in excess of 20 min.
Measurement of bleeding time in mice was performed as previously described (Weiss et al., 2002). Mice were anesthetized with an intramuscular injection of ketamine and xylazine, and 5 mm of the distal tip of the tail was amputated. The tail was blotted with filter paper every 5 sec until the paper was no longer stained. If the animals bled for 20 min, the experiment was stopped, and the bleeding time was recorded as 20 min.

[6] = target: T2, NSF disassembly of the SNARE complex (Cricetulus griseus, UniProt P18708); format: biochemical; conditions: recombinant NSF, α-SNAP, GST-SNAREs, ATP; TAT-NSF peptides 1 μM in Example 2
T2 construct: made in house; host or cells: bacteria (NSF, alpha-SNAP); BL21 cells (GST-SNAREs)
T2 sequence (P18708 whole entry): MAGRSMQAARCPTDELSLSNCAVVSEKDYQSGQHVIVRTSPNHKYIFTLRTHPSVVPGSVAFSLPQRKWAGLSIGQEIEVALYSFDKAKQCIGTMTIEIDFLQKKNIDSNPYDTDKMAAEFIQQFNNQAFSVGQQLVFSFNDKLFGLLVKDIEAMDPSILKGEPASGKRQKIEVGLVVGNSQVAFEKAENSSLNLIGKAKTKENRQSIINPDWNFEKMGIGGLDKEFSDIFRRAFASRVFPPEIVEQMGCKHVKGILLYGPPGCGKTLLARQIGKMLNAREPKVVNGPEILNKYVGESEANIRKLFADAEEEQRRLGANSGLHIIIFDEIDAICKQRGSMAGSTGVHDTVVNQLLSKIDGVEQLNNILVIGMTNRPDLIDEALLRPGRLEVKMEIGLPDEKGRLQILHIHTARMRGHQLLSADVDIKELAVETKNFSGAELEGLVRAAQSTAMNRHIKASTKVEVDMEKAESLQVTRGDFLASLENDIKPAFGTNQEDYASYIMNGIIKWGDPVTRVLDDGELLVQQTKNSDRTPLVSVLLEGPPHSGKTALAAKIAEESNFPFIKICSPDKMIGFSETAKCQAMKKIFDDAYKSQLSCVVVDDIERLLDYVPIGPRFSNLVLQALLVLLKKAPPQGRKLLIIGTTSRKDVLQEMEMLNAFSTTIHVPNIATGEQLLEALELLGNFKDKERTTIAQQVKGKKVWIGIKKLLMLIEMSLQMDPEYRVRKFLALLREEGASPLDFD
T2 sequence (P81125 whole entry partner): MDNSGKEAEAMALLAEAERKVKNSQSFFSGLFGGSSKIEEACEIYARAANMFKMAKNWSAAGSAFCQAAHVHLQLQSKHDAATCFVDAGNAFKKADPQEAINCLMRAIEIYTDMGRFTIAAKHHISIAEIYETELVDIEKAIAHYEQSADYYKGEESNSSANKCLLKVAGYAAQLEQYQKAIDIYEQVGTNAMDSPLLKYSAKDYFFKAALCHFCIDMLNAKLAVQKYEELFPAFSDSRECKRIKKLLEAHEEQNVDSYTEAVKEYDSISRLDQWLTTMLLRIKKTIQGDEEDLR
T2 sequence (Q12846 whole entry partner): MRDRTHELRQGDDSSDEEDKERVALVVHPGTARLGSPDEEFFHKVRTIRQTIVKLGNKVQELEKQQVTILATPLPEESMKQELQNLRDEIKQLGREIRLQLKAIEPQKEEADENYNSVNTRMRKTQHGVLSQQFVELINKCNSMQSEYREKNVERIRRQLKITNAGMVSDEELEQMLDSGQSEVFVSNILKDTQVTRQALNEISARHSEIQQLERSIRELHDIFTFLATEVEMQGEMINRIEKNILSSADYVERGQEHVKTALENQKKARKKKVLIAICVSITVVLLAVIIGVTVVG
T2 sequence (Q15836 whole entry partner): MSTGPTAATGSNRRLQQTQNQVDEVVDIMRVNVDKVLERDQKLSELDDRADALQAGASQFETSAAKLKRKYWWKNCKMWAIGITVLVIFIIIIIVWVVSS
T2 sequence (O00161 whole entry partner): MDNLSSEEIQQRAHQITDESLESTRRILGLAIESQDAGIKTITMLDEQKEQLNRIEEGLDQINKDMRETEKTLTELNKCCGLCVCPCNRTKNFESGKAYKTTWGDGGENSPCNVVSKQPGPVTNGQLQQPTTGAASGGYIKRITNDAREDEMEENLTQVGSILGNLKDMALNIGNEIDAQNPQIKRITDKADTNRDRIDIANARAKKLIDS
Procedure: Accordingly, recombinant NSF was pre-treated with the NO donor DEA-NONOate 1 mM for 10 min. Pre-treated NSF, α-SNAP, and detergent extracts of HAEC membranes were then mixed in the presence of 0.5 mM ATP or ATP-γS. These reactions were then fractionated by sucrose density gradient ultracentrifugation, fractions were collected from the bottom of the tube, and immunoblotted with antibody to syntaxin-4.
The effect of NO upon NSF disassembly of purified, recombinant SNARE molecules was next examined. Recombinant (His)6-NSF was pre-treated or not with 1 mM DEA-NONOate for 10 min, and then mixed with and (His)6-a-SNAP and recombinant SNARE fusion polypeptides identified in endothelial cells: GST-syntaxin-4, VAMP-3, and SNAP-23. ATP or ATP-γS was added, the mixture was precipitated with glutathione-sepharose beads, and precipitated proteins were fractionated by SDS-PAGE and immunoblotted with antibody to the NSF tag.
The disassembly activity of NSF was measured by a co-precipitation assay (Pevsner et al., 1994). […] This mixture of NSF and SNARE polypeptides was then incubated in binding buffer (4 mM HEPES pH 7.4, 0.1M NaCl, 1 mM EDTA, 3.5 mM CaCl2, 3.5 mM MgCl2, and 0.5% Nonidet P-40) and glutathione-sepharose beads for 1 h at 4° C. with rotation. The beads were washed with binding buffer 4 times, mixed with SDS-PAGE sample buffer, boiled for 3 min, and analyzed by immunoblotting.
The effect of the TAT-NSF peptide inhibitors upon the ability of NSF to separate from SNARE complexes was measured. Recombinant NSF was pre-treated with 1 μM TAT-NSF peptides, and recombinant GST-SNARE polypeptides were then added, including syntaxin-4, SNAP-23, and VAMP-3. […]
The effect of TAT-NSF peptides on NSF disassembly activity was determined. […]
TAT-NSF81 (SEQ ID NO: 6) inhibition of NSF disassembly activity was also investigated. […] ATP was added, GST-SNAREs were precipitated with glutathione-sepharose, and the precipitant was analyzed for the co-precipitation of NSF.
The disassembly activity of NSF was measured by a co-precipitation assay (Pevsner et al., 1994). […]

T1 sequence (P18708 whole entry): as the sequence (P18708 whole entry) above

## YGRKKRRQRRR-GGG-LLDYVPIGPRFSNLVLQALLVL (YGRKKRRQRRRGGGLLDYVPIGPRFSNLVLQALLVL; fusion peptide) [TAT-NSF700]
[1]
  effect of peptide on thrombin induced vWF release: most effective at inhibiting release of vWF
[2]; 10 μM TAT-NSF peptides, recombinant NSF
  effect on NSF ATPase activity at 10 μM peptide: more effective than the other peptides
[3]; mice, 5 ug/mouse i.v. 15 min prior to infarction, 35 min ischemia, 24 h reperfusion
  size of the infarct: 44%+/−3
[3]; vs vehicle treated mice
  absolute reduction in infarct size: 12%
  relative reduction in infarct size: 21%

## COC(=O)[C@@H](N)CCCNC(=N)N[N+](=O)[O-] [L-NAME, L-nitroarginine-methyl-ester]
[1]
  effect on thrombin induced vWF release, dose response: increases thrombin stimulated vWF release in a dose-dependent manner
  effect on thrombin stimulated vWF release: increases the amount of vWF released
[1]; L-NAME 1 mM, VEGF 50 ng/ml 2 h
  effect on VEGF inhibition of thrombin stimulated vWF release: blocks the effects of VEGF treatment
[4]; 5 mg/kg L-NAME intravenously, histamine superfusion
  histamine induced platelet interactions with the venule wall, frequency vs non-treated mice: more than double
[4]; L-NAME pre-treated
  time of peak platelet-venule interactions after histamine treatment: 6 min

## CC(=N)NCc1cccc(CN)c1 [1400W]
[1]
  effect on thrombin stimulated vWF release: had no effect

## NCCN(CCN)/[N+]([O-])=N/O [DETA-NONOate, dithylenetriamine (DETA)-NONOate]
[1]
  effect on thrombin induced vWF release, dose response: inhibits thrombin induced vWF release

## CCN1C(=O)C=CC1=O [NEM]
[1]
  effect on thrombin induced vWF release, dose response: inhibits thrombin induced vWF release

## YGRKKRRQRRR-GGG-ENSFRFLADIFPAKAFPVRFE (YGRKKRRQRRRGGGENSFRFLADIFPAKAFPVRFE; fusion peptide) [TAT-NSF222scr]
[5]
  effect on bleeding time: has no effect upon bleeding time

## vascular endothelial growth factor [VEGF]
[1]
  effect on thrombin stimulated vWF release: decreases thrombin stimulated vWF release

## YGRKKRRQRRR-GGG-GLDKEFNSIFRRAFASRVFPPE (YGRKKRRQRRRGGGGLDKEFNSIFRRAFASRVFPPE; fusion peptide) [TAT-NSF222]
[1]
  effect of peptide on thrombin induced vWF release: inhibits vWF release in a dose-dependent manner
[2]; recombinant NSF
  effect on NSF ATPase activity: inhibits both NSF ATPase activity
[6]
  effect on NSF disassembly activity: also NSF disassembly activity
[5]; 45 min
  mice with bleeding times in excess of 20 min: 3 of the 6
[5]
  effect on bleeding time: dramatically prolongs the bleeding time

## YGRKKRRQRRRGGGALYSFDKAKQCIGTMTIEID [TAT-NSF81]
[1]; read-out: IC50% for inhibition of endothelial exocytosis (vWF release), HAEC, 20 min pre-treatment, thrombin 1 U/ml
  IC50: 1 to 10 µM
[2]
  IC50: 1 to 10 µM
